Source: patent US20130190375A1, “CARBOXAMIDES” (BAYER CROPSCIENCE AG, priority 2005, published 2013)

Each molecule was assayed on Phakopsora pachyrhizi (assay: Soya bean rust control test/spray application). Conditions: active compound application rate 100 ppm; sprayed one day before inoculation; evaluated 14 days after inoculation.
Format: in vivo, Phakopsora pachyrhizi on soya beans (cultivar: Enrei)
Procedure: 5 parts by weight of carboxamide of the formula (I), 142.4 parts by weight of acetone and 7.5 parts by weight of emulsifier (polyoxyethylene alkylphenyl ether) are mixed and adjusted with water to the desired concentration.
Soya beans (cultivar: Enrei) were cultivated in plastic containers having a diameter of 7.5 cm. In each case 3 containers, 6 ml of the test substance (preparation as described above) were sprayed onto the seedlings which had reached the 2.3 leaf stage. One day after spraying, the leaves were inoculated with an urediniospore suspension (1×10^5 urediniospores/ml) of Phakopsora pachyrhizi. 14 days after the inoculation, the degree of infection for each container was evaluated and the efficacy was calculated. The phytotoxicity was also monitored.

Row | Molecule | Efficacy in % [%]
1 | 3-(difluoromethyl)-N-[2-(1,3-dimethylbutyl)-4-fluorophenyl]-1-methyl-1H-pyrazole-4-carboxamide [(38)] | 95
2 | Cc1nn(C)c(F)c1C(=O)Nc1ccccc1C(C)CC(C)C (stereo not shown) [(2), N-[2-(1,3-dimethylbutyl)phenyl]-5-fluoro-1,3-dimethyl-1H-pyrazole-4-carboxamide] | 100
3 | CC(C)CC(C)c1ccccc1NC(=O)c1c(C(F)(F)F)nn(C)c1F (stereo not shown) [(5), 3-(trifluoromethyl)-N-[2-(1,3-dimethylbutyl)phenyl]-5-fluoro-1-methyl-1H-pyrazole-4-carboxamide] | 80
4 | Cn1cc(C(=O)Nc2ccc(F)cc2-c2ccc(Cl)c(Cl)c2)c(C(F)F)n1 [(21), N-(3′,4′-dichloro-5-fluoro-1,1′-biphenyl-2-yl)-3-(difluoromethyl)-1-methyl-1H-pyrazole-4-carboxamide] | 50
5 | Cn1cc(C(=O)Nc2ccccc2-c2ccc(Cl)cc2)c(I)n1 [(33), N-(4′-chlorobiphenyl-2-yl)-3-iodo-1-methyl-1H-pyrazole-4-carboxamide] | 50
6 | Cn1cc(C(=O)Nc2ccccc2CCC(C)(C)C)c(C(F)F)n1 [(35), 3-(difluoromethyl)-N-[2-(3,3-dimethylbutyl)phenyl]-1-methyl-1H-pyrazole-4-carboxamide] | 100
7 | Cc1nn(C)c(F)c1C(=O)Nc1ccccc1CCC(C)(C)C [(36), N-[2-(3,3-dimethylbutyl)phenyl]-5-fluoro-1,3-dimethyl-1H-pyrazole-4-carboxamide] | 100
8 | Cc1nc(C(F)F)c(C(=O)Nc2ccsc2CC[Si](C)(C)C)s1 [(39), 4-(difluoromethyl)-2-methyl-N-{2-[2-(trimethylsilyl)ethyl]-3-thienyl}-1,3-thiazole-5-carboxamide] | 80
9 | N-[3′-fluoro-4′-(trifluoromethyl)biphenyl-2-yl]-3-iodo-1-methyl-1H-pyrazole-4-carboxamide [(37)] | 50

Same assay, conditions: active compound application rate 250 ppm; sprayed one day before inoculation; evaluated 14 days after inoculation

Row | Molecule | Efficacy in % [%]
10 | Cn1cc(C(=O)Nc2ccc(F)cc2-c2ccc(Cl)c(Cl)c2)c(C(F)F)n1 [(21), N-(3′,4′-dichloro-5-fluoro-1,1′-biphenyl-2-yl)-3-(difluoromethyl)-1-methyl-1H-pyrazole-4-carboxamide] | 90
